Measured values from patent publication US20050090651A1, “Polymeric compounds” (AdProTech Limited Cesterford Research Park, Little …, priority 2001, published 2005).
Where a SMILES comes first, the peptide text is derived from it. The star is where a group is joined. Myristoyl = CCCCCCCCCCCCCC(=O)*

Assay: Solubility of the lyophilised peptide
Format: physicochemical
Description: The crude peptide was desalted via gel filtration (Sephadex G10, 0.1% TFA in water) before purification by preparative C18 Vydac) high performance liquid chromatography (HPLC) using 0.1% trifluoroacetic acid and 0.1% trifluoroacetic acid/90% acetonitrile as gradient components. After lyophilisation, the peptide was a white amorphous powder, soluble to at least 10 mg/mL in both dimethylsulfoxide and water. Fast atom bombardment spectrometry gave a main peak at 2101 amu corresponding to the molecular ion of the peptide.

Compound CCCCCCCCCCCCCC(=O)NCC(=O)N[C@@H](CO)C(=O)N[C@@H](CO)C(=O)N[C@@H](CCCCN)C(=O)N[C@@H](CO)C(=O)N1CCC[C@H]1C(=O)N[C@@H](CO)C(=O)N[C@@H](CCCCN)C(=O)N[C@@H](CCCCN)C(=O)N[C@@H](CC(=O)O)C(=O)N[C@@H](CC(=O)O)C(=O)N[C@@H](CCCCN)C(=O)N[C@@H](CCCCN)C(=O)N1CCC[C@H]1C(=O)NCC(=O)N[C@@H](CC(=O)O)C(=O)N[C@@H](CCCCNC(=O)[C@@H](N)CS)C(N)=O [MSWP2278, Myristoyl-Gly-Ser-Ser-Lys-Ser-Pro-Ser-Lys-Lys-Asp-Asp-Lys-Lys-Pro-Gly-Asp-(ε-amino-cysteinyl carboxamide)-Lys-NH2] (Myristoyl-GSSKSPSKKDDKKPGDK(Cys)-NH2) has a solubility (in dimethylsulfoxide) of no less than 10000 µg/mL and a solubility (in water) of no less than 10000 µg/mL.
